For one test, the target named is T1, STAT6 (Homo sapiens, UniProt P42226).
T1 construct: stably transfected HaCaT keratinocyte cell line, which expresses NanoLuc luciferase reporter gene under the transcriptional control of the STAT6 responsive promoter; endogenous in cells; host or cells: HaCaT keratinocyte reporter cell line (stably transfected with a NanoLuc reporter)
T1 sequence (P42226 1-847): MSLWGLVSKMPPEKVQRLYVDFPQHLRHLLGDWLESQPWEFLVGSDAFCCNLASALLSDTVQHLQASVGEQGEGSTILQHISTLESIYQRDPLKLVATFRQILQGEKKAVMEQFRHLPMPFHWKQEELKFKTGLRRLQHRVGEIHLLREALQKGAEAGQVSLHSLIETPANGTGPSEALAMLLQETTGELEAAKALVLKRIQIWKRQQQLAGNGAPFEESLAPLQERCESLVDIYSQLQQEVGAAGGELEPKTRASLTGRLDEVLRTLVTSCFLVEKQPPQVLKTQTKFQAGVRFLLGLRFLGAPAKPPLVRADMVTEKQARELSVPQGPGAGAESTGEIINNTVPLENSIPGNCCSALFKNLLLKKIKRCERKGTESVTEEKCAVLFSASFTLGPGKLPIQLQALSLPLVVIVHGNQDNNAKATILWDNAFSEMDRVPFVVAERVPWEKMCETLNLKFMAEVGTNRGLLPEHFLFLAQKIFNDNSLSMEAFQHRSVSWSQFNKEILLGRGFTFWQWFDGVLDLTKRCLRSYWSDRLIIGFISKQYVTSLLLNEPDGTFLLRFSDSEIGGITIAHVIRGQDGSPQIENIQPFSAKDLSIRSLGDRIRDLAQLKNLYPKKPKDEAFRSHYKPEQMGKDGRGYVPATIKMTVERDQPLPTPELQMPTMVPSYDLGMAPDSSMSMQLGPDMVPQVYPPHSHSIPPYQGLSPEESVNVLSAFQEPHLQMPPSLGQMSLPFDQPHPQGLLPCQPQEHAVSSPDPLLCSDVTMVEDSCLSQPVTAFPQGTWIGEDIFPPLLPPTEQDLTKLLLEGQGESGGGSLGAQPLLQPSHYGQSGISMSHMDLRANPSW
The test is described as follows: STAT6 Reporter Luciferase Assay (IL-13 stimulated HaCaT keratinocyte NanoLuc reporter cells). Format: cell-based. The following applies: read-out: Reporter EC50. In short, it runs like this: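 IL-13 (0.12 nM, 4 h) stimulated STAT6 reporter activity in HaCaT cells after a 2 h compound pre-incubation; NanoLuc signal was measured.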

Test [1] relates to CCL17 secretion in peripheral human whole blood. The test is described as follows: Human Whole Blood (HWB) CCL17 TR-FRET Assay (IL-13 stimulated CCL17 secretion). It counts as cell-based. The method, boiled down:
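Compounds are titrated (11 points, 3-fold, duplicate) into fresh heparinized human whole blood and held 2 h at 37 °C before IL-13 challenge (10 ng/mL final). After 48 h at 37 °C, serum CCL17 is measured by TR-FRET sandwich assay and IC50 values are calculated.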
A general note: In TR-FRET formats the signal depends on donor and acceptor labels being close together.

[2] abbreviates: STAT6 NanoLuc luciferase reporter, IL-13 stimulated HaCaT keratinocyte cells.
Where [3] appears, read: Homo sapiens, 48 h, inhibition of CCL17 secretion in human whole blood, 10 ng/mL IL13, 48 hours.
Where [4] appears, read: IL-13 stimulated HaCaT STAT6 NanoLuc reporter cells.
Where [5] appears, read: Homo sapiens, 48 h, human whole blood, IL-13 stimulated.
[6] abbreviates: Homo sapiens, 48 h, human whole blood, 10 ng/mL IL13, 48 hours.
The mark [7] stands for this setting: Homo sapiens, 48 h, human whole blood, IL-13 10 ng/mL.
Where [8] appears, read: human whole blood, IL-13 stimulated, 48 hours.

19 compounds from patent US20250320213A1, “Nitrogen-Containing Heterocyclic Compounds” (Pfizer Inc., priority 2024, published 2025) can be followed below.

Like-named read-outs stand apart in the source and are kept apart here.

As usually defined, the EC50 is the concentration needed to bring the measured effect to its halfway point. In general, IC50 refers to the point on the concentration scale where inhibition reaches its midpoint. A lower IC50 goes with greater potency in that assay. As to `CCn1nc(C(=O)NCc2ccc(NC(=O)N(C)C)cc2)c2c1CCN(c1ccc(-c3ncnn3C)cn1)C2` [Example 23, N-(4-(3,3-Dimethylureido)benzyl)-1-ethyl-5-(5-(1-methyl-1H-1,2,4-triazol-5-yl)pyridin-2-yl)-4,5,6,7-tetrahydro-1H-pyrazolo[4,3-c]pyridine-3-carboxamide], the EC50 on STAT6 (setting [2]) was 6 nM. In test [1] (setting [3]), half-maximal inhibition (IC50) required 62 nM.

In the case of `CCn1nc(C(=O)NCc2ccc(C(N)=O)cc2)c2c1[C@@H](C)CN(c1ncc(N3CCCC3=O)cn1)C2` [Example 483, (S)-N-(4-carbamoylbenzyl)-1-ethyl-7-methyl-5-(5-(2-oxopyrrolidin-1-yl)pyrimidin-2-yl)-4,5,6,7-tetrahydro-1H-pyrazolo[4,3-c]pyridine-3-carboxamide], on STAT6 (setting [4]), the EC50 came out at 33 nM. In addition, the IC50 in test [1] (setting [5]) came to 63 nM.

In the case of `CN(C)C(=O)Nc1ccc(CNC(=O)c2nn(C)c3c2CN(c2ccc(C(=O)N(C)C)cn2)CC3)cc1` [Example 14, 5-(5-(dimethylcarbamoyl)pyridin-2-yl)-N-(4-(3,3-dimethylureido)benzyl)-1-methyl-4,5,6,7-tetrahydro-1H-pyrazolo[4,3-c]pyridine-3-carboxamide], on STAT6 (setting [2]), the EC50 amounted to 29 nM. Half-maximal inhibition in test [1] (setting [3]) (IC50) required 260 nM.

As for `C[C@@H]1CN(c2ccc(C(=O)N(C)C)cn2)Cc2c(C(=O)NCc3ccc(NC(=O)N(C)C)cc3)nn(C3(C)CC3)c21` (single isomer, unassigned) [Example 551], at STAT6 (setting [4]), the EC50 was determined as 12 nM. In test [1] (setting [6]), this compound showed an IC50 of 104 nM.

With `CCn1nc(C(=O)NCc2ccc(NC(=O)N3CC(NC)C3)c(F)c2)c2c1[C@@H](C)CN(c1ccc(C(=O)N(C)C)cc1)C2` [Example 716, (S)-5-(4-(dimethylcarbamoyl)phenyl)-1-ethyl-N-(3-fluoro-4-(3-(methylamino)azetidine-1-carboxamido)benzyl)-7-methyl-4,5,6,7-tetrahydro-1H-pyrazolo[4,3-c]pyridine-3-carboxamide], the EC50 on STAT6 (setting [4]) was found to be 3 nM. In test [1] (setting [7]), this compound came in with an IC50 of 25 nM.

Turning to `CN(C)C(=O)Nc1ccc(CNC(=O)c2nn(C3CCCC3)c3c2CN(c2ccc(C(=O)N(C)C)cn2)CC3)cc1` [Example 264, 1-cyclopentyl-5-(5-(dimethylcarbamoyl)pyridin-2-yl)-N-(4-(3,3-dimethylureido)benzyl)-4,5,6,7-tetrahydro-1H-pyrazolo[4,3-c]pyridine-3-carboxamide], on STAT6 (setting [4]), the EC50 was found to be 7 nM. Further, the IC50 in test [1] (setting [5]) came out at 131 nM.

On to `CC1CCN(c2ccc(N3CCc4c(c(C(=O)NCc5ccc(NC(=O)N(C)C)cc5)nn4C(C)C)C3)nc2)C1=O` (centres unmarked) [Example 61, N-(4-(3,3-dimethylureido)benzyl)-1-isopropyl-5-(5-(3-methyl-2-oxopyrrolidin-1-yl)pyridin-2-yl)-4,5,6,7-tetrahydro-1H-pyrazolo[4,3-c]pyridine-3-carboxamide], for which, on STAT6 (setting [2]), the EC50 was 75 nM. 2590 nM corresponded to half-maximal inhibition in test [1] (setting [3]) (IC50).

`CCn1nc(C(=O)NCc2ccc(NC(=O)N(C)C)cc2)c2c1[C@@H](C)CN(c1ccc(C(=O)N(C)C)cn1)C2` [Example 126, (S)-5-(5-(Dimethylcarbamoyl)pyridin-2-yl)-N-(4-(3,3-dimethylureido)benzyl)-1-ethyl-7-methyl-4,5,6,7-tetrahydro-1H-pyrazolo[4,3-c]pyridine-3-carboxamide]: the EC50 at STAT6 (setting [2]) turned out to be 1 nM. In addition, the IC50 in test [1] (setting [3]) is 5 nM.

As to `C[C@H]1CN(c2ccc(C(=O)N(C)C)cn2)Cc2c(C(=O)NCc3ccc(NC(=O)N(C)C)cc3)nn(C3CCOCC3)c21` (single isomer, unassigned) [Example 258], the EC50 at STAT6 (setting [4]) stood at 2 nM. This compound also showed an IC50 in test [1] (setting [5]) of 8 nM.

For the compound `Cc1ccn(-c2ccc(N3CCc4c(c(C(=O)NCc5ccc(NC(=O)N(C)C)cc5)nn4C(C)C)C3)nc2)n1` [Example 47, N-(4-(3,3-dimethylureido)benzyl)-1-isopropyl-5-(5-(3-methyl-1H-pyrazol-1-yl)pyridin-2-yl)-4,5,6,7-tetrahydro-1H-pyrazolo[4,3-c]pyridine-3-carboxamide], at STAT6 (setting [2]), the EC50 amounted to 1180 nM. For the same compound, the IC50 in test [1] (setting [3]) was > 30000 nM.

For `CC(C)n1nc(C(=O)NCc2ccc(NC(=O)N(C)C)cc2)c2c1CCN(c1ccc(C(=O)N3Cc4cccnc4C3)cn1)C2` [Example 33, 5-(5-(6,7-dihydro-5H-pyrrolo[3,4-b]pyridine-6-carbonyl)pyridin-2-yl)-N-(4-(3,3-dimethylureido)benzyl)-1-isopropyl-4,5,6,7-tetrahydro-1H-pyrazolo[4,3-c]pyridine-3-carboxamide], on STAT6 (setting [2]), the EC50 was 2 nM. In addition, the IC50 in test [1] (setting [3]) worked out at 35 nM.

As to `CC(CO)n1nc(C(=O)NCc2ccc(NC(=O)N(C)C)cc2)c2c1CCN(c1ccc(C(=O)N(C)C)cn1)C2` (single isomer, unassigned) [Example 360, rel-(R or S)-5-(5-(dimethylcarbamoyl)pyridin-2-yl)-N-(4-(3,3-dimethylureido)benzyl)-1-(1-hydroxypropan-2-yl)-4,5,6,7-tetrahydro-1H-pyrazolo[4,3-c]pyridine-3-carboxamide], the EC50 at STAT6 (setting [4]) stood at 74 nM. In test [1] (setting [8]), this compound came in with an IC50 of 91 nM.

Take `CC(C)n1nc(C(=O)NCc2ccc(NC(=O)N3CCCN(C)CC3)cc2)c2c1[C@@H](C)CN(c1ccc(C(=O)N(C)C)cn1)C2` [Example 615, (S)-5-(5-(dimethylcarbamoyl)pyridin-2-yl)-1-isopropyl-7-methyl-N-(4-(4-methyl-1,4-diazepane-1-carboxamido)benzyl)-4,5,6,7-tetrahydro-1H-pyrazolo[4,3-c]pyridine-3-carboxamide]: the EC50 at STAT6 (setting [4]) is 2 nM. Besides, in test [1] (setting [6]), inhibition was half-maximal at 13 nM (IC50).

For the compound `Cc1nccc(-c2ccc(CNC(=O)c3nn(C(C)C)c4c3CN(c3ccc(C(=O)N(C)C)cc3)C[C@@H]4C)cc2)n1` [Example 728, (S)-5-(4-(dimethylcarbamoyl)phenyl)-1-isopropyl-7-methyl-N-(4-(2-methylpyrimidin-4-yl)benzyl)-4,5,6,7-tetrahydro-1H-pyrazolo[4,3-c]pyridine-3-carboxamide], at STAT6 (setting [4]), the EC50 came out at 231 nM. Also, in test [1] (setting [7]), the IC50 turned out to be 4210 nM.

With `CCn1nc(C(=O)NCc2ccc(NC(=O)N(C)C)cc2)c2c1C(C)CN(c1ccc(C(=O)N(C)C)cn1)C2` (racemic) [Example 71, rac-(R)-5-(5-(dimethylcarbamoyl)pyridin-2-yl)-N-(4-(3,3-dimethylureido)benzyl)-1-ethyl-7-methyl-4,5,6,7-tetrahydro-1H-pyrazolo[4,3-c]pyridine-3-carboxamide], at STAT6 (setting [2]), the EC50 is 2 nM. The compound further came in with an IC50 in test [1] (setting [3]) of 14 nM.

Consider `CC(C)n1nc(C(=O)NCc2ccc(NC(=O)N(C)C)cc2)c2c1[C@@H](C)CN(c1ncc(-c3nccn3C)cn1)C2` [Example 340, (S)-N-(4-(3,3-dimethylureido)benzyl)-1-isopropyl-7-methyl-5-(5-(1-methyl-1H-imidazol-2-yl)pyrimidin-2-yl)-4,5,6,7-tetrahydro-1H-pyrazolo[4,3-c]pyridine-3-carboxamide], for which the EC50 on STAT6 (setting [4]) worked out at 276 nM. This compound displayed an IC50 in test [1] (setting [5]) of 2340 nM.

On to `CC(C)n1nc(C(=O)NCc2ccc(NC(=O)N(C)C)cc2)c2c1[C@@H](C)CN(c1ccc(C(=O)N(C)CC3CCNCC3)cc1)C2` [Example 637, (S)-N-(4-(3,3-dimethylureido)benzyl)-1-isopropyl-7-methyl-5-(4-(methyl(piperidin-4-ylmethyl)carbamoyl)phenyl)-4,5,6,7-tetrahydro-1H-pyrazolo[4,3-c]pyridine-3-carboxamide], for which the EC50 at STAT6 (setting [4]) is 13 nM. In test [1] (setting [6]), this compound gave an IC50 of 48 nM.

With `CC(=O)N1CCCc2cc(N3CCc4c(c(C(=O)NCc5ccc(NC(=O)N(C)C)cc5)nn4C(C)C)C3)ccc21` [Example 37, 5-(1-Acetyl-1,2,3,4-tetrahydroquinolin-6-yl)-N-(4-(3,3-dimethylureido)benzyl)-1-isopropyl-4,5,6,7-tetrahydro-1H-pyrazolo[4,3-c]pyridine-3-carboxamide], the EC50 at STAT6 (setting [2]) was 30 nM. The IC50 in test [1] (setting [3]) was found to be 701 nM.

For “rel-(R or S)-5-(5-(dimethylcarbamoyl)pyridin-2-yl)-N-(4-(3,3-dimethylureido)benzyl)-1-methyl-7- [Example 390]”, at STAT6 (setting [4]), the EC50 is 39 nM. In test [1] (setting [8]), this compound yielded an IC50 of 104 nM.
